In patent US11918686B2, “Lipid bilayer coated mesoporous silica nanoparticles with a high loading capacity for one or more anticancer agents” (The Regents of the University of California, priority 2013, dated 2024):

Assays:
[1] = in the clinic; cited from earlier work
[2] = Histology of kidney, liver and spleen; assay type: in vivo, mice; conditions: H&E, day 38
Method: (§1) (A) The animal treatments are described in the method section. BxPC3 cells were subcutaneously injected into mice 7 days before treatments (gray boxes). These animals received six i.v. injections (red boxes) every 3-6 days (green boxes) for 38 days as shown. The tumor inhibition effect of two-wave treatment was compared to saline, GEM-Lip alone, free GEM, empty liposome, and TGFβi-MSNP. Tumor size was accurately measured 1-2 times per week. Tumor weight was calculated according to the formula Tumor weight (mg)=(length in mm)×(width in mm)2/2. *P<0.05, compared to GEM-Lip group. (B) The animal weights were recorded at indicate time points and expressed for the experimental duration. *P<0.05, compared to saline; #P<0.05, compared to GEM-Lip. (C) Histological analyses of kidney sections were performed by UCLA DLAM diagnostic laboratory services. The sections were stained with hematoxylin/eosin (H&E) and examined by light microscopy. Representative images are shown. Higher magnification images were provided to shown the swelling and edema occur in Bowman's space, a morphological abnormality of GEM-induced renal toxicity. White arrows point to normal Bowman's space in glomerulus, and the black arrows point to the swelling and edema occur in Bowman's space.
Appropriate size sections of the tumor, liver, kidney, and spleen were fixed in 10% formalin and then embedded into paraffin. […]

PDAC = conditions: previously untreated PDAC patients with metastatic disease; cited from earlier work
[3] = Animal body weight during treatment; assay type: in vivo, nude mice; conditions: compared to saline-treated BxPC3 tumor-bearing mice
Method: as §1, with “Higher magnification images were provided to shown the swelling and edema occur in Bowman's space, a morphological abnormality of GEM-induced renal toxicity. White arrows point to normal Bowman's space in glomerulus, and the black arrows point to the swelling and edema occur in Bowman's space.” left out
One week after tumor implantation, the BxPC-3 tumor-bearing mice were randomly divided into six groups. […] The body weight and tumor size were accurately recorded one to two times per week. Tumor weight was calculated according to the formula Tumor weight (mg)=(length in mm)×(width in mm)^2/2.

Blood biochemistry = assay type: in vivo, mice; conditions: serum
Method: Following the animal experiments described above, the mice were sacrificed on the 38th day and serum was collected by centrifuging the whole blood at 5,000 rpm for 15 min. The biochemical parameters were assayed by UCLA Division of Laboratory Animal Medicine (DLAM) diagnostic laboratory services.

[4] = system: cytidine deaminase (CDA); BxPC3 cells; assay: Protection against CDA-mediated GEM inactivation (MTS assay); assay type: cell-based, human; conditions: CDA 100 ng/mL, 1 h at 37° C., then BxPC3 cells 72 h
Method: We also assess the ability of the liposome to protect GEM against the effect of on cytidine deaminase (CDA), which plays a key role in drug inactivation (circulatory half-life of <8 minutes) in the clinic. Briefly, free GEM or GEM-laden liposomes were mixed with CDA enzyme at a concentration of 100 ng/mL in the incubation medium for 1 h at 37° C. The incubation media were then added to BxPC3 cells, which were cultured in 96 wells plate for 72 h. IC50 values were determined by the MTS assay for each group. The results were compared to the IC50 values for GEM or GEM-liposomes, not incubated with CDA. […] By contrast, free GEM was not protected against the effect of CDA.

[5] = system: Smad2 phosphorylation in PCs; assay: Smad2 activation assay (pSmad2 immunofluorescence); assay type: cell-based, human; conditions: PCs treated with 2 ng/mL TGF-β, inhibitor dose of 1 M
Method: (A) HDME cells (10^4 cells/mL) and HSM cells (5×10^3 cells/mL) were first stained by CellTracker™ Green CMFDA (Invitrogen, Grand Island, NY) and CellTracker™ Red CMTPX (Invitrogen, Grand Island, NY) according the manufacture's instruction 24 h before experiment. After live cell staining, ECs were treated with 2 ng/mL of TGF-β for 3 h and PCs were treated with […] or TGFβi-MSNP at inhibitor dose of 1 μM for 3 h. Subsequently, both cell types were co-cultured in Matrigel-coated 6-well plates for further incubation of 16 h at 37° C. PC/EC adhesions were quantitatively determined from five fields of three independent samples with the fluorescent microscope (Zeiss, Germany). *, P<0.05. (B) Use of immunofluorescence assay to determine the level of Smad2 phosphorylation. PCs were seeded in 8-well chamber slides. 16 h post cell seeding, PCs were treated with 2 ng/mL TGF-β for 3 h. Subsequently, the cells were treated with TGFβi-laden MSNP at the inhibitor dose of 1 M for 1-24 h. […] The slides were visualized under a fluorescence microscope. (C) The signal intensity of the green channel, reflecting activated Smad2 (pSmad2), was calculated by Image J software (version 1.37c, NIH). *, P<0.05.
Smad2 activation was determined using an immunofluorescent staining in 8-well chamber slides in which 4×10^4 PCs were cultured in each well containing 0.4 mL culture medium. […]

[6] = system: PC coverage of ECs in BxPC3 xenograft; assay: CD31/NG2 co-staining of ECs and PCs in BxPC3 xenograft; assay type: in vivo, nude mice; conditions: i.v., inhibitor dose 1 mg/kg, tumor collected 1-2 h post injection
Method: “T” indicates tumor cells. Arrows point out stroma. (B) Tumor-bearing animals (tumor size of 0.8˜1.0 cm in diameter) were divided into two groups and received i.v. injection of TGFβi-MSNP at inhibitor dose of 1 mg/kg (MSNP dose of 2 mg/kg). Saline and i.v. injection of free inhibitor at same dose were used as control. Tumor tissues were quickly collected 1-2 h post injection and OCT embedded for frozen section and dual color immunohistochemistry staining. The procedure of the staining was provided in the method section. This dual color staining that labels EC maker CD31 in green (FITC) and PC maker NG2 in red (Alexa fluor 594) were used to compare the effect of tumor blood vessel integrity and quantify the extent of PC/EC association. Zoom-in images were provided at higher magnification to show the extent of PC/EC association in each group. PC covered EC were quantified in three random fields in each group. *, P<0.05. […]
The tumor tissues were rapidly embedded by OCT reagent before sectioning to provide 4 m thick slices. […] The slides were visualized under a fluorescence microscope. The PC coverage was counted from three randomly selected fields.

tumor = conditions: animal study; cited from earlier work

For `Nc1ccn([C@@H]2O[C@H](CO)[C@@H](O)C2(F)F)c(=O)n1` [Free GEM, gemcitabine], which circulatory half-life [1] is on record?
Its circulatory half-life is less than 8 min.

And the “kidney histology (glomerular swelling and edema of Bowman's space)” value [2]?
The value was “intermediate nephrotoxicity”.

What about the median overall survival (PDAC) of the same compound?
The median overall survival was 6.7 months.

And the body weight change [3]?
The body weight change was “reduced weight gain”.

What about the ALB (Blood biochemistry; day 38) of the same compound?
The ALB was 3.2 ± 0.1 g/dL.

What about the ALP (Blood biochemistry; day 38) of the same compound?
Its ALP is 55.8 ± 9.8 U/L.

And the ALT (Blood biochemistry; day 38)?
The ALT was 42.5 ± 33.8 U/L.

What about the AST (Blood biochemistry; day 38) of the same compound?
The AST was 222 ± 178 U/L.

And the BUN (Blood biochemistry; day 38)?
The BUN was 38.0 ± 11.3 mg/dL.

What about the CA (Blood biochemistry; day 38) of the same compound?
The CA was 9.4 ± 0.3 mg/dL.

What about the CHOL (Blood biochemistry; day 38) of the same compound?
Its CHOL is 58.7 ± 4.0 mg/dL.

What about the CK (Blood biochemistry; day 38) of the same compound?
Its CK is 512.0 ± 39.6 U/L.

And the CO2 (Blood biochemistry; day 38)?
The CO2 was 20.5 ± 2.8 mEq/L.

And the CREAT (Blood biochemistry; day 38)?
Its CREAT is 0.2 ± 0.0 mg/dL.

What about the DBILI (Blood biochemistry; day 38) of the same compound?
The DBILI was 0.7 ± 0.5 mg/dL.

What about the GGT (Blood biochemistry; day 38) of the same compound?
Its GGT is 5.3 ± 1.155 U/L.

What about the GLU (Blood biochemistry; day 38) of the same compound?
The GLU was 128.3 ± 16.9 mg/dL.

What about the PHOS (Blood biochemistry; day 38) of the same compound?
Its PHOS is 6.1 ± 1 mg/dL.

What about the TBILI (Blood biochemistry; day 38) of the same compound?
Its TBILI is 0.5 ± 0.2 mg/dL.

And the TP (Blood biochemistry; day 38)?
The TP was 5.1 ± 0.2 g/dL.

What about the BUN CR (Blood biochemistry; day 38, BUN-to-creatinine ratio) of the same compound?
Its BUN CR is 191 ± 16.

What about the “protection of GEM against CDA” value [4] of the same compound?
Its value is “not protected”.

Which “duration of inhibition of Smad2 phosphorylation” value [5] does the source give for `c1ccc(-c2[nH]ncc2-c2ccnc3ccccc23)nc1` [LY364947] here?
The value was 6 h.

And the “composite fluorescence staining of PC overlap with ECs in tumor” value [6]?
The value was “slight but non-significant reduction”.

With `CC(=O)O[C@H]1C(=O)[C@@]2(C)[C@H]([C@H](OC(=O)c3ccccc3)[C@]3(O)C[C@H](OC(=O)[C@H](O)[C@@H](NC(=O)c4ccccc4)c4ccccc4)C(C)=C1C3(C)C)[C@]1(OC(C)=O)CO[C@@H]1C[C@@H]2O` [paclitaxel] as the compound, how does the “increase of GEM content in the tumor” value (tumor) read?
Its value is 2.8 fold.
